Measured values as given in patent US20240139206A1, “METHODS OF TREATMENT” (Kinoxis Therapeutics Pty Ltd, priority 2021, published 2024).
“Also recorded” adds a separate entry of the source.

Experiments:
Type in all cases: in vivo
[1] = tested on: single housed hyper-aggressive male Swiss mice; test: Isolation-induced aggression model, two mouse social interaction test; settings: for increased time spent fighting in single housed mice: 10-minute test
Text: This model has been chosen as it is considered to have excellent predictive validity toward human aggression and face validity for modelling offensive impulsive aggression in human aggression and it leads specifically to alterations in aggressive behaviour without confounding changes in other behaviours.
Eighty male Swiss mice (ARC, Perth, Australia) aged 6-7 weeks upon arrival were used for objectives (1) and (3) in this study, 30 mice of the same age and strain were used for objective (2). Subjects were housed four per cage in a temperature-controlled colony room (22° C.±1° C.) under standard laboratory conditions (12-hour light/dark cycle; light phase 0700-1900 hours) upon arrival. Mice were housed in standard IVC cages. Mice had ad libitum access to food and water in their home cages. All experiments were performed during the light phase. All experimental procedures were approved by University of Sydney Animal Ethics Committee.
After allowing 1 week for acclimatisation, n=64 mice were rendered hyper-aggressive by moving them into single housing, whereas n=16 animals were housed in groups of four. During this time, all mice were weighed at least once per week. One week prior to the commencement of testing mice were given habituation injections with saline (0.9%, 10 mL/kg) to reduce the potential confounding stress and anxiety from injections during testing.
Testing commenced from 6 weeks post-isolation. All experiments were conducted in testing arenas constructed from acrylic, with matte blue internal walls and floor (400 mm×400 mm×400 mm). The lighting at the centre of the arenas during testing was <10 lux. Prior to each test, one mouse in each pair was marked on its back with a non-toxic green marker, this allowed the automated behavioural tracking software to distinguish between the two mice (see below). On test days, weight and condition matched pairs of unfamiliar mice were administered their drug treatment(s) as described below and were then placed into the testing arena together for a 10 min test session (Examples 2 and 4) or a 5 minute test session (Example 3).
Drugs were administered either via intraperitoneal (i.p.) injection (injection volume 10 ml/kg) or administered orally (as indicated). The testing arenas were cleaned between sessions with ethanol (80%) and F10 disinfectant to eliminate residual odours.
KNX100 2HCL (Wuxi Apptech, Hong Kong, China) was dissolved in saline (0.9%).
A 5 group between-subjects design was utilised. 15 min prior to testing, group-housed mice received vehicle treatment (VEHg) and single housed mice received one of four different doses of KNX100 (0 aka VEHs, 2.5, 5 or 10 mg/kg). The sample size in each group was as follows: group housed (n=12); singled housed administered KNX100 dose 0 (n=14), […] (n=16), […] (n=18), and 10 (n=16) mg/kg, for i.p. administration.
For oral dosing, mice were similarly grouped, and 20 mg/kg KNX100 in saline or vehicle (saline) were administered by oral gavage with n=10 mice per group.
A 4 group between-subjects design was utilised.
The behaviours of interest were: (1) time (in seconds) spent fighting; (2) time (in seconds) spent huddling (defined as the mice being in close physical contact with each other while stationary); (3) time (in seconds) spent grooming themselves; and (4) distance travelled (in mm) by each mouse during the experimental session.
Experimental sessions were recorded with an overhead camera using CaptureStar (Version 1.00, CleverSys, Virginia, USA). The behaviours detailed above were automatically quantified from the videos using the behavioural tracking software TopScan, SocialScan and AggressionScan (CleverSys, Virginia, USA). Data were analysed using SPSS (Version 24.0, IBM, USA). Data were analysed with a one-way ANOVA and planned contrasts. Significance was set at p≤0.05.
This study used the same model and testing procedure for the two-mouse social interaction test as described in Example 1, and using a phosphate salt form of KNX100.

APP/PS1 mice = test: Resident-Intruder (RI) test in Alzheimer's disease aggression mouse model; settings: for number (frequency) of attacks on the intruder mouse vs vehicle-treated APP/PS1 mice: KNX100 phosphate salt 2.5, 5 or 10 mg/kg freebase equivalent IP 15 min prior, risperidone 0.05 mg/kg IP 30 min prior, 5-minute session
Text: Male APP/PS1 and WT mice (˜3 months of age) were used to assess the effect of KNX100 on aggression in a mouse model of Alzheimer's Disease.
APP/PS1 are double transgenic mice expressing a chimeric mouse/human amyloid precursor protein (APP) and presenilin (PS1).
Male C57BL/6J mice were purchased from Jackson Laboratory at 7-8 weeks of age and were used as the intruders in this study. The APP/PS1 mice and wild-type control mice were single-housed and C57BL/6J mice were group-housed (4 per cage) in a light-controlled environment (12/12 light/dark cycle) with access to food and water ad libitum. Tests were performed during the animal's light cycle.
The test compound, KNX100 was provided in its phosphate salt form. Doses of 2.5, 5, and 10 mg/kg freebase equivalent were dissolved in saline and injected IP, at a dose volume of 10 ml/kg, 15 minutes prior to the test.
Briefly, all mice were acclimated to red-light conditions for 60 minutes prior to testing. During the RI test, an unfamiliar intruder C57BL/6J mouse was placed directly into the home cage of the APP/PS1 resident mouse for 300 seconds. During the 5-minute session, the latency time to attack (attack was defined at a bite), and the total number (frequency) of attacks, were recorded manually by an experimenter blinded to the treatment groups. Immediately after testing, mice were separated, and the intruder mouse was placed back into his home cage. All mice that were wounded were treated according to IACUC guidelines.
One week after the pre-screen RI session, AD resident mice were administered vehicle, test compound, or risperidone. The RI test session was performed as described above following the appropriate pretreatment time.
Body weights were recorded at each time point as specified above. For aggression, the latency to attack and the total number of attacks were recorded.
Data were analyzed by analysis of variance (ANOVA) followed by post-hoc comparisons when appropriate. An effect was considered significant if p<0.05. Data are presented as the mean±standard error of the mean (SEM).

6-OHDA lesion mice = test: Social interaction test in neonatal 6-OHDA lesion mouse model of ADHD; settings: KNX100 phosphate 1.845-7.38 mg/kg freebase equivalent i.p. or 3.75-15 mg/kg p.o.
Text: Increased aggression is commonly observed in patients with ADHD. This increased aggression is also observed in several animal models of ADHD. One such model is the neonatal 6-hydroxydopamine (6-OHDA) lesion mouse model.
Briefly, intracerebroventricular infusion of 6-OHDA into brains of mice around postnatal day 5 results in a biological ADHD phenotype (e.g. dopamine depletion) and a behavioural phenotype (e.g. hyperactivity, impaired attention, impulsivity, aggression, and learning and memory deficits) in the majority of mice from postweaning onwards.
Five primary experimental conditions of interest are investigated: • Sham lesion mice treated with vehicle • 6-OHDA lesion mice treated with vehicle • 6-OHDA lesion mice treated with 1.845 mg/kg freebase equivalent KNX100 phosphate i.p. or 3.75 mg/kg p.o. • 6-OHDA lesion mice treated with 3.69 mg/kg freebase equivalent KNX100 phosphate i.p. or 7.5 mg/kg p.o. • 6-OHDA lesion mice treated with 7.38 mg/kg freebase equivalent KNX100 phosphate i.p. or 15 mg/kg p.o.
During adolescence, mice undergo a social interaction test to test the effects of KNX100 on increased aggression the ADHD model mice (6-OHDA lesion mice) compared to the control mice (sham lesion mice). […] The behaviours of the control or ADHD model mouse are assessed and include the total time spent fighting, the total number of fights, and the latency to the first fight.

[2] = Example 4: 0.1 mg/kg risperidone (30 min prior) or 10 mg/kg KNX100 dihydrochloride salt (15 min prior), 10 min test
[3] = Example 4: 0.1 mg/kg risperidone or 10 mg/kg KNX100 dihydrochloride salt
[4] = Example 4: 10 mg/kg KNX100 vs 0.1 mg/kg risperidone
[5] = KNX100 dihydrochloride salt 20 mg/kg p.o. 30 min prior, 5 min test
[6] = KNX100 dihydrochloride salt 2.5, 5 or 10 mg/kg i.p., single housed mice, linear trend for dose
[7] = acute KNX100 phosphate salt 15 mg/kg freebase equivalent p.o.
[8] = subchronic KNX100 phosphate salt 15 mg/kg freebase equivalent p.o. once daily 7 days

## Cc1nc2n(c(=O)c1CCN1CCC(c3noc4cc(F)ccc34)CC1)CCCC2 [risperidone, reference compound]
[1]; [2]
  time spent fighting vs vehicle treated single housed mice: spent less time fighting; also recorded: significantly inhibited fighting
[1]; [3]
  time spent fighting vs vehicle treated group housed mice: spent less time fighting
  time spent huddling vs vehicle treated single housed mice: spent significantly more time huddling; also recorded: increased huddling
[1]; Example 4: 0.1 mg/kg risperidone, 0.1 mg/kg
  time spent grooming vs vehicle treated single housed mice: spent significantly more time grooming; also recorded: significantly increased time spent grooming
APP/PS1 mice
  number (frequency) of attacks on the intruder mouse vs vehicle-treated APP/PS1 mice: decreased the number of attacks

## Cn1ncc2c1Nc1ccccc1NC2 [KNX100]
[1]; [2]
  time spent fighting vs vehicle treated single housed mice: spent less time fighting; also recorded: significantly inhibited fighting
[1]; [3]
  distance travelled vs vehicle treated single housed mice: travelled significantly less distance; also recorded: significantly reduced distance travelled
  time spent fighting vs vehicle treated group housed mice: spent less time fighting
  time spent huddling vs vehicle treated single housed mice: spent significantly more time huddling; also recorded: increased huddling
[1]; Example 4: 0.1 mg/kg risperidone vs 10 mg/kg KNX100
  distance travelled / locomotor activity, risperidone compared with KNX100: significantly less suppression of locomotor activity
[1]; Example 4: 10 mg/kg KNX100 dihydrochloride salt
  time spent grooming vs vehicle treated group housed mice: did not differ significantly from vehicle treated group housed mice in time spent grooming
[1]; [4]
  time spent fighting / inhibition of aggression, KNX100 compared with risperidone: no significant difference in time spent fighting; also recorded: at least equivalent inhibition of aggression to risperidone
  time spent grooming, KNX100 compared with risperidone: no significant different in time spent grooming
  time spent huddling, KNX100 compared with risperidone: no significant difference in time spent huddling
[1]; [5]
  time spent fighting vs vehicle treated group housed mice: did not differ significantly in time spent fighting compared to vehicle treated group housed mice; also recorded: did not differ significantly in time spent fighting relative to the group housed mice
  time spent fighting vs vehicle treated single housed mice: spent significantly less time fighting than the single housed vehicle treated mice
[1]; KNX100 dihydrochloride salt 2.5, 5, 10 mg/kg i.p., vs vehicle treated group housed mice
  distance travelled relative to the group housed mice: none of the doses of KNX100 resulted in a significant difference in distance travelled
[1]; KNX100 dihydrochloride salt 2.5, 5 or 10 mg/kg i.p. 15 min prior, single housed mice, linear trend for dose, 10 min test
  time spent fighting: dose dependently inhibited induced aggression; also recorded: dose dependently inhibited fighting
[1]; [6]
  distance travelled: dose dependently decreased distance travelled; also recorded: dose dependently inhibited
  time spent huddling: dose dependently increased time spent in this form of close physical contact; also recorded: dose dependently increased huddling
  time spent self-grooming: dose dependently increased time spent self-grooming
[1]; KNX100 phosphate salt 15 mg/kg freebase equivalent p.o.
  efficacy of subchronic compared with acute KNX100 (duration spent fighting, number of fights, latency to first fight): no significant difference in efficacy; also recorded: maintains full efficacy at reducing aggressive behaviour after repeated dosing; also recorded: equally efficacious
[1]; [7]
  greater number of fights in single housed mice: prevented
  reduced latency to first fight in single housed mice: prevented
[1]; acute KNX100 phosphate salt 15 mg/kg freebase equivalent p.o. on day 7, 30 min prior
  increased time spent fighting in single housed mice: prevented the increased time spent fighting
[1]; [8]
  greater number of fights in single housed mice: prevented
  reduced latency to first fight in single housed mice: prevented
  increased time spent fighting in single housed mice: prevented the increased time spent fighting
APP/PS1 mice; KNX100 phosphate salt 10 mg/kg freebase equivalent IP
  latency to attack the intruder mouse vs vehicle-treated APP/PS1 mice: showed a trend to increasing the latency to attack; also recorded: tended to increase the latency to attack intruders
APP/PS1 mice
  number (frequency) of attacks on the intruder mouse vs vehicle-treated APP/PS1 mice: decreased the number of attacks; also recorded: robustly reduced the number of aggressive attacks
6-OHDA lesion mice
  total time spent fighting, total number of fights, latency to the first fight: is shown to inhibit fighting incidents, duration of fighting, and latency to first attack
